Experimental findings from BindingDB's records for patent US20250051323 (Richter Gedeon, 2025) are described below.

The target of the assay is T1, GABA-A receptor; alpha-5/beta-3/gamma-2 (Homo sapiens, UniProt P18507+P28472+P31644).
T1 sequence (P31644 whole entry): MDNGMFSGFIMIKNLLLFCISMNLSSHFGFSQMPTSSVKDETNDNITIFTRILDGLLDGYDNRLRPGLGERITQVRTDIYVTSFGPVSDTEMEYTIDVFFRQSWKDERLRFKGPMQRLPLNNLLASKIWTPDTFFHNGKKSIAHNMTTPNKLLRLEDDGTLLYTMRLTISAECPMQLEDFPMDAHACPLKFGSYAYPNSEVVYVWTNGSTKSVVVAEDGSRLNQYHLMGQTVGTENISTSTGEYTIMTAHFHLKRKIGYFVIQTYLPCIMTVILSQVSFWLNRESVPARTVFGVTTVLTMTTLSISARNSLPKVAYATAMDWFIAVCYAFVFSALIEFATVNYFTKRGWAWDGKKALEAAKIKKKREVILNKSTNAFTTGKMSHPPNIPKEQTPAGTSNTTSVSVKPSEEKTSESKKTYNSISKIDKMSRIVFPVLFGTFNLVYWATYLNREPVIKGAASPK
T1 sequence (P18507 whole entry): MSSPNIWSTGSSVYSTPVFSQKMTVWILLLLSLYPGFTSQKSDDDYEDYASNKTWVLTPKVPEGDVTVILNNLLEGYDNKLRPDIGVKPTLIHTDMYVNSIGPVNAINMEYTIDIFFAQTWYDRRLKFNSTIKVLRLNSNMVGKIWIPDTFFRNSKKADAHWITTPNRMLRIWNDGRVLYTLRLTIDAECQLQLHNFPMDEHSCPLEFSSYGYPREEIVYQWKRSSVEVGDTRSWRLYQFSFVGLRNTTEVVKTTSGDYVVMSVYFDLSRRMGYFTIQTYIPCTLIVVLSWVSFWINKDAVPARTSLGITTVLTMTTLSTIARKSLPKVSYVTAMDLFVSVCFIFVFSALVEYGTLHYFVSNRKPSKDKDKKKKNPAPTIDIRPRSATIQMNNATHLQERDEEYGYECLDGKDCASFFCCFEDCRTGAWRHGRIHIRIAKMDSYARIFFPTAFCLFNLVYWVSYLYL
T1 sequence (P28472 whole entry): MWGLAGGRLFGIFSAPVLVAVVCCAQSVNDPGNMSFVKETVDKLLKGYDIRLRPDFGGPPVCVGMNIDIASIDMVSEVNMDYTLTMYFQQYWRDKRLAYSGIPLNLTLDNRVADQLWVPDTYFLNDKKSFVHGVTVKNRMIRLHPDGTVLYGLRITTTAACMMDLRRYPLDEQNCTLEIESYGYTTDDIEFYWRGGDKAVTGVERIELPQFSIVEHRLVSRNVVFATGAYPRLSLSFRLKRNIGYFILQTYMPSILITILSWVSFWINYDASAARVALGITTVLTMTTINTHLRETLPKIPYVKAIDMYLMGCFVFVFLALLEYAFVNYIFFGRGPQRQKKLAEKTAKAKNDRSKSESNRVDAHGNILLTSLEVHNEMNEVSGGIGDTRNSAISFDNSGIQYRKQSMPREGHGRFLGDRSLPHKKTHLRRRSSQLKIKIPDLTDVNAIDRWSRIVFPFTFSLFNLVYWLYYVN
Briefly: Binding Assay. As for the experimental part:
Receptor binding assays were performed in 96-well format in deep-well plates. For each 96-well plate one ampule of membrane homogenate was thawed and diluted in binding buffer (50 mM Tris pH=7.4, 100 mM KCl) and 200 μL was dispensed into each well. Radioligand [3H]Ro151788 (Perkin Elmer: NET757250UC) was prepared in binding buffer and added to each well in 50 μL volume to give final concentration of 0.5 nM. Test compounds in suitable concentration(s) were added in additional 50 μL. The final assay volume was 300 μL. Incubation was carried out for 60 minutes at 4° C. For non-specific binding 10 μM unlabeled diazepam was used. After incubation samples were filtered over UniFilter GF/B™ using Filtermate Harvester (Perkin Elmer) and washed with 5×1 mL binding buffer. The plate was dried at 40° C. for an hour and 40 μL Microscint (Perkin Elmer) scintillation cocktail was added to each well. The plate was read in Microbeta (Perkin Elmer).

As a reminder, the Ki is the dissociation constant of the complex between target and ligand, obtained from inhibition or displacement. A low value points to higher affinity. In turn, `Cc1nnn(-c2ccc(C(F)(F)F)nc2)c1COc1cc2c(cn1)CN(c1cccnc1)CC2` [US20250051323, Example 37] displayed a Ki of 37.9 nM.

On to `Cc1onc(-c2ccc(C(F)(F)F)nc2)c1COc1cc2c(nn1)CN(C1CCOC1)CC2` (stereo not drawn) [US20250051323, Example 18], for which the affinity corresponds to a Ki of 12.7 nM.

Compound `Cc1ccc(-c2noc(C)c2COc2cc3c(cn2)CN(C2CCC2)CC3)cn1` [US20250051323, Example 4] registered a Ki of 4.5 nM. This Ki lies about 2.8-fold lower than the previous one.

For `Cc1ccc(-n2nnc(C)c2COc2cc3c(cn2)CN(C2(C(C)C)COC2)CC3)cn1` [US20250051323, Example 42], the affinity corresponds to a Ki of 28 nM.

With `CCC1(N2CCc3cc(OCc4c(C)nnn4-c4ccc(C)nc4)ncc3C2)COC1` [US20250051323, Example 43], the Ki worked out at 19 nM.

On to `COc1ccc(-n2nnc(C)c2COc2cc3c(cn2)CN(C2CCOCC2)CC3)cn1` [US20250051323, Example 40], for which the Ki turned out to be 28.5 nM.

Turning to `Cc1nnn(-c2ccc(C(F)(F)F)nc2)c1COc1cc2c(cn1)CN(CC1CCS(=O)(=O)C1)CC2` (stereo not drawn) [US20250051323, Example 36], affinity was put at a Ki of 53.5 nM. Against the preceding compound, the Ki is about 1.9-fold higher.

In turn, `Cc1ccc(-n2nnc(C)c2COc2cc3c(cn2)CN(CC(C)C)CC3)cn1` [US20250051323, Example 41] registered an inhibition constant Ki of 61.5 nM.
